According to EP1001774B1, “USE OF PHOSPHOLAMBAN INHIBITORS FOR INCREASING CORONARY FLOW” (ORION CORPORATION, priority 1997, dated 1999):
Entries after “also recorded” stand apart in the source; their conditions may differ.

Experiments:
phospholamban = molecular target: T1, phospholamban (Cavia porcellus, UniProt A0A286XLC6); test: Calcium uptake assay (fluo-3) in SR vesicles from cardiac tissue; format: biochemical, guinea-pig; details: 50 and 100 µM; Figure 2A; three experiments per group
T1 construct: calcium uptake into the SR vesicles prepared from cardiac tissue; from tissue; host or cells: guinea-pig heart (ventricular myocardium), SR vesicle preparation
T1 sequence (A0A286XLC6 1-52): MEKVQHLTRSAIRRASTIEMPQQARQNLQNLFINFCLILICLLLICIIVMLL
From the text: (§1) The direct binding of a compound to the phospholamban protein can be ascertained by the circular dichroism (CD) spectroscopy. The methods for determining whether a compound relieves the inhibitory effect of phospholamban on SR Ca^2+-ATPase by direct binding to the phospholamban protein, i.e. is a phospholamban inhibitor, are illustrated in detail in the experimental section.
(§2) The effect on phospholamban of the compounds used in the invention was verified by measuring its effects on calcium uptake into the SR vesicles prepared from cardiac tissue and into vesicles prepared from fast skeletal muscle (psoas m.). […] The methods are described below in detail.
(§3) Guinea pigs (10-12) were decapited. Their hearts or the psoas muscles were excised, washed in ice-cold 0.9 % NaCl and cut into pieces in a buffer containing 20 mM Tris-maleate, 0.3 M sucrose, pH 7.0. Thereafter tissue pieces were homogenized with Polytron and further with Potter (10 strokes). The homogenate was centrifugated at 1000 g for 15 min at 4 °C. The supernatant was collected and the pellet was resuspended into 5 ml of the buffer (20 mM Tris-maleate, 0.3 M sucrose, pH 7.0) and recentrifugated at 1000 g for 10 min at 4 °C. The obtained supernatant was combined with the earlier collected supernatant and centrifugated once again at 10 000 g for 20 min at 4 °C. The final supernatant was filtered into a bottle equipped with a magnetic stirrer. KCl was added to the filtered supernatant to achieve the final concentration of 0.6 M (at 4 °C). The obtained solution was centrifugated at 100 000 g for 60 min at 4 °C. The pellet was suspended in 5 ml of the buffer containing 20 mM Tris-maleate, 0.3 M sucrose, pH 7.0 and centrifugated at 100 000 g for 60 min at 4 °C. The obtained pellet was suspended in 5 ml of buffer containing 20 mM Tris-maleate, 0.3 M sucrose, 0.1 M KCI, pH 7.0 and stored at -80 °C until use. The protein concentration was also measured in order to standardise the separately prepared vesicle preparations.
(§4) In the calcium uptake assay, the fluorescent indicator, fluo-3 was used to detect the decrease of the extravesicular Ca^2+-concentration, when the SR Ca^2+ATPase was transferring Ca^2+ from the extravesicular space into the SR-vesicles.
(§5) The SR-vesicles obtained above (50 µg protein/ml) were preincubated with or without the test compound at 37 °C for 5 min in the assay buffer containing 40 mM imidazole, 95 mM KCI, 5 mM NaN3, 5 mM MgCl2, 0.5 mM EGTA, 5 mM potassium oxalate, 2 µM ruthenium red, 5 µM fluo-3, pH 7.0. The free calcium was adjusted to 0.1 µM or to 0.04 µM by CaCl2. The reaction was initiated by adding ATP (5 mM). The final reaction volume was 1.5 ml. The fluorescence of reaction mixture was measured for 3 min by using the excitation and emission wavelengths of 510 nm and 530 nm, respectively.

[1] = molecular target: T2, PLB[1-36 a.a.](Ser16PO3-, Thr17PO3-) (Homo sapiens, UniProt P26678); test: Circular dichroism (CD) spectroscopy, binding to double phosphorylated phospholamban fragment; details: 50 µM in water, Fig. 1
T2 construct: (PLB [1-36 a.a.](Ser16PO3-, Thr17PO3-)); made in house; host or cells: chemical peptide synthesis (no expression host)
T2 sequence (P26678 1-36): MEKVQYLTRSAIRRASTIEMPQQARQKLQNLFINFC
Experimental: (§6) Both the 36 amino acid N-terminal fragment of human phospholamban (PLB [1-36 a.a.]) and the 36 amino acid N-terminal fragment of double phosphorylated human phospholamban (PLB [1-36 a.a.](Ser16PO3-, Thr17PO3-)) were obtained by peptide synthesis. The peptides were purified by reverse phase HPLC, analysed for homogenity by mass spectrometry and were found pure at 97 %. The peptides were lyophilized and then resuspended in water at the final concentration of 0.1 mM, for CD analysis. The pH of both solutions was between 3 and 4 and was not further adjusted. Compound of Example 1c was solved in water at a final concentration of 0.1 mM. The pH was adjusted at 7.2 by adding 1 N NaOH.
(§7) Circular dichroism spectra were acquired at 24 °C on samples of 100 µl. The spectra were recorded on a Jasco J-720 spectropolarimeter using a 1 mm path-length quartz cuvette. The band width was 1 nm, the sensitivity 20 mdeg, the step resolution 0.5 nm, the response time 0.5 sec, and the scan speed 20 nm/min (from 250 to 190 nm). The spectra were expressed in [θ] x 10^-3 x degrees x cm^2 x dmol^-1.

SR Ca^2+-ATPase = test: Calcium uptake assay (fluo-3) in SR vesicles from fast skeletal muscle (psoas m.), which contain no phospholamban; format: biochemical, guinea-pig; details: 50 and 100 µM; Figure 2B; three experiments per group
From the text: as §1, §2, §3, §4, §5

PLB[1-36 a.a.] = molecular target: T3, PLB[1-36 a.a.] (Homo sapiens, UniProt P26678); test: Circular dichroism (CD) spectroscopy, binding to the cytosolic part of phospholamban; details: 50 µM in water, Fig. 1
T3 construct: N-terminal fragment of human phospholamban (PLB [1-36 a.a.]); made in house; host or cells: chemical peptide synthesis (no expression host)
T3 sequence (P26678 1-36 limits assumed): T2 sequence (P26678 1-36)
Experimental: as §6, §7

coronary arteries = test: Coronary flow in isolated paced heart (Langendorff, constant pressure); set-up: species or system guinea-pig; details: 0.3 - 30 µM; six hearts paced at 250 beats/min; Figure 3A
Experimental: Guinea-pigs of either sex weighing 300-400 g were used in the study. After the guinea-pig was sacrificed by a blow on the skull and decapitated the heart was rapidly excised. The heart was then rinsed in cold oxygenated perfusion buffer. A cannula was inserted into the aorta and secured with a ligature. Retrograde perfusion began as soon as the heart was placed in a thermostatically controlled moist chamber of the Langendorff apparatus. Modified Tyrode solution (37 °C), equilibrated in a thermostatically controlled bulb oxygenator with carbogen (95 % O2 and 5% CO2) was used as a perfusion buffer. The composition of the Tyrode solution was (in mM): NaCl 135; MgCl2 x 6H2O 1; KCl 5; CaCl2 x 2H2O 2; NaHCO3 15; Na2HPO4 x 2H2O 1; glucose 10; pH 7.3-7.4. The experiments were carried out under constant pressure condition (50 mmHg). After a short prestabilization (10 min) a latex balloon (size 4) was carefully placed into the left ventricle through the left pulmonary vein and the left atrium. The latex balloon was attached to a stainless-steel cannula coupled with a pressure transducer. The latex balloon, the cannula and the chamber of the pressure transducer were filled with ethylene glycol / water (1:1) mixture avoiding any air-bubble. The isovolumetric left ventricular pressure was recorded through the pressure transducer. The maximal positive and negative derivatives of the left ventricular pressure were calculated by using the digitized pressure signals. At the beginning of the experiment, the volume of the balloon was adjusted to obtain a diastolic pressure of approximately 5 mmHg. Coronary flow (ml/min) was continuously recorded by an electromagnetic flow meter with a flow probe inserted above the aortic cannula. The heart was paced at 250 beats/min with a coaxial electrode localized on the surface of the right atrium. Before starting the experiment, the heart was allowed to stabilise further for 30 - 50 min with vehicle (0.1% DMSO) to reach a stable coronary flow.
After 15 min baseline recording various concentrations of the test compound of Example 1c were added to the perfusion buffer at 15 min intervals. The concentration range of 0.3 - 30 µM was tested. The vehicle concentration (0.1% DMSO) was kept constant throughout the experiment.

[2] = tested on: endothelial cells of the coronary vessels; test: Coronary flow in freely beating isolated heart with and without Triton x 100 destruction of endothelial cells; set-up: species or system guinea-pig; details: 0.3 - 30 µM; Figures 4A and 4B
Experimental: Substance P, an endothelial-dependent vasodilator, was used as a reference compound. Triton x 100 was used to destroy the endothelial cells of the coronary vessels.
The experiment was carried out under constant pressure condition (50 mmHg) on freely beating heart. Coronary flow (ml / min) was continuously recorded by an electromagnetic flow meter with a flow probe inserted above the aortic cannula.
After 15 min baseline recording a bolus dose of substance P (0.1 µM / 0.3 ml) was added to the perfusion buffer via a side branch of the aortic cannula (Figure 4B). The addition of substance P was repeated twice before the injection of triton x 100 (0.05% / 0.2 ml) was given via a needle inserted into the cannula just above the aorta. After 85 min of triton x 100 injection a control dose of substance P was added twice to the perfusion buffer in order to check if the endothelial cells has destroyed. Thereafter the concentration range of 0.3 - 30 µM of the compound of Example 1c was tested. The vehicle concentration (0.1% DMSO) was kept constant throughout the experiment. A control experiment is shown in Figure 4A where the effect of Example 1 c is seen at the same concentration range when the […] is not disrupted by Triton x 100.

In the case of `Cc1c(Cc2ccccc2)c(=O)oc2cc(OCc3nnn[nH]3)cc(OCc3nnn[nH]3)c12` [Example 1c, 3-Benzyl-5,7-bis[(1H -tetrazol-5-yl)methoxy]-4-methyl-2H-1-benzopyran-2-one], the “Ca^2+ uptake rate into the cardiac SR vesicles” value (phospholamban) is reported as “accelerated the calcium uptake into the cardiac SR vesicles”, the “interaction with PLB[1-36 a.a.](Ser16PO3-, Thr17PO3-) (CD spectra)” value [1] is reported as “does not interact or interacts weakly with the phosphorylated phospholamban” and the “Ca^2+ uptake rate into the fast skeletal muscle SR vesicles” value (SR Ca^2+-ATPase) is reported as “did not change the calcium uptake”. The “interaction with PLB[1-36 a.a.] (CD spectra)” value (PLB[1-36 a.a.]) was “forms a complex with PLB at their N-terminal domain; also recorded: interacts with the cytosolic part of phospholamban PLB[1-36 a.a.]”, the coronary flow (coronary arteries) was “increase in coronary flow” and the “mechanism of the vasodilatory effect (coronary flow with / without Triton x 100)” value [2] was “due to an endothelial-mediated mechanism”.
